Data as given in the supplement of paper PMC10307832.

Key:
Test in all cases: relative viability (nuclei count vs DMSO), 5 days (fraction); higher = more cells survive
NCI-H1792 = test system: NCI-H1792
Summary of the method: (§1)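 Five library-drug doses in √10 steps were combined with a fixed anchor-drug dose, or a single drug was given alone, by pin tool to lung cancer cell lines in 1536-well plates the day after seeding. Nuclei were stained and counted after 5 days. Relative viability is the nuclei count in treated wells over that in vehicle wells, taken as the median of duplicate plates.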

NCI-H2405 = test system: NCI-H2405
Summary of the method: as §1

NCI-H322M = test system: NCI-H322M
Summary of the method: as §1

CAL-12T = test system: CAL-12T
Summary of the method: as §1

RERF-LC-KJ = test system: RERF-LC-KJ
Summary of the method: as §1

NCI-H1793 = test system: NCI-H1793
Summary of the method: as §1

LCLC-97TM1 = test system: LCLC-97TM1
Summary of the method: as §1

BEN = test system: BEN
Summary of the method: as §1

LCLC-103H = test system: LCLC-103H
Summary of the method: as §1

SK-LU-1 = test system: SK-LU-1
Summary of the method: as §1

NCI-H2087 = test system: NCI-H2087
Summary of the method: as §1

Question: What does the source list for Nc1ccn([C@@H]2O[C@H](CO)[C@@H](O)[C@@H]2O)c(=O)n1 [Cytarabine] + C[C@]1(O)C[C@@H](c2nc(-c3ccc4ccc(-c5ccccc5)nc4c3)c3c(N)nccn32)C1 [Linsitinib] (partner 1 µM)?
Answer: relative viability (NCI-H1792; first compound 0.05 µM): 0.34; relative viability (NCI-H1792; first compound 0.1581 µM): 0.348; relative viability (NCI-H1792; first compound 0.5 µM): 0.283; relative viability (NCI-H2405; first compound 0.005 µM): 0.933; relative viability (NCI-H2405; first compound 0.01581 µM): 0.714; relative viability (NCI-H2405; first compound 0.05 µM): 0.661; relative viability (NCI-H2405; first compound 0.1581 µM): 0.498; relative viability (NCI-H2405; first compound 0.5 µM): 0.383; relative viability (NCI-H322M; first compound 0.005 µM): 0.822; relative viability (NCI-H322M; first compound 0.01581 µM): 0.707; relative viability (NCI-H322M; first compound 0.05 µM): 0.628; relative viability (NCI-H322M; first compound 0.1581 µM): 0.464; relative viability (NCI-H322M; first compound 0.5 µM): 0.43; relative viability (CAL-12T; first compound 0.005 µM): 0.72; relative viability (CAL-12T; first compound 0.01581 µM): 0.878; relative viability (CAL-12T; first compound 0.05 µM): 0.747; relative viability (CAL-12T; first compound 0.1581 µM): 0.39; relative viability (CAL-12T; first compound 0.5 µM): 0.203; relative viability (RERF-LC-KJ; first compound 0.005 µM): 0.771; relative viability (RERF-LC-KJ; first compound 0.01581 µM): 0.787; relative viability (RERF-LC-KJ; first compound 0.05 µM): 0.757; relative viability (RERF-LC-KJ; first compound 0.1581 µM): 0.474; relative viability (RERF-LC-KJ; first compound 0.5 µM): 0.458; relative viability (NCI-H1793; first compound 0.005 µM): 0.941; relative viability (NCI-H1793; first compound 0.01581 µM): 0.899; relative viability (NCI-H1793; first compound 0.05 µM): 0.89; relative viability (NCI-H1793; first compound 0.1581 µM): 0.732; relative viability (NCI-H1793; first compound 0.5 µM): 0.391; relative viability (LCLC-97TM1; first compound 0.005 µM): 0.167; relative viability (LCLC-97TM1; first compound 0.01581 µM): 0.148; relative viability (LCLC-97TM1; first compound 0.05 µM): 0.111; relative viability (LCLC-97TM1; first compound 0.1581 µM): 0.101; relative viability (LCLC-97TM1; first compound 0.5 µM): 0.0967; relative viability (BEN; first compound 0.005 µM): 0.616; relative viability (BEN; first compound 0.01581 µM): 0.775; relative viability (BEN; first compound 0.05 µM): 0.557; relative viability (BEN; first compound 0.1581 µM): 0.423; relative viability (BEN; first compound 0.5 µM): 0.307; relative viability (LCLC-103H; first compound 0.005 µM): 0.976; relative viability (LCLC-103H; first compound 0.01581 µM): 1.22; relative viability (LCLC-103H; first compound 0.05 µM): 1.12; relative viability (LCLC-103H; first compound 0.1581 µM): 1.09; relative viability (LCLC-103H; first compound 0.5 µM): 1.18; relative viability (SK-LU-1; first compound 0.005 µM): 0.954; relative viability (SK-LU-1; first compound 0.01581 µM): 0.918; relative viability (SK-LU-1; first compound 0.05 µM): 0.922; relative viability (SK-LU-1; first compound 0.1581 µM): 0.476; relative viability (SK-LU-1; first compound 0.5 µM): 0.39; relative viability (NCI-H2087; first compound 0.005 µM): 0.958; relative viability (NCI-H2087; first compound 0.01581 µM): 1.07; relative viability (NCI-H2087; first compound 0.05 µM): 0.827; relative viability (NCI-H2087; first compound 0.1581 µM): 0.752; relative viability (NCI-H2087; first compound 0.5 µM): 0.623
